Assay results as given in US5976783A, “Bis-maleimido cross-linking agents” (Boehringer Mannheim Corporation, priority 1997, dated 1999).

What was measured:
[1] = stability of 4-maleimidobutyraldehyde on work-up; type: physicochemical; details: work-up needed low temperatures (0° C.) and complete exclusion of oxygen
Protocol: 4-Maleimidobutyraldehyde diethylacetal (2 g, 8.29 mmol) in tetrahydrofuran (20 ml) and water (0.5 ml) was stirred under argon and DOWEX 50X8 ion exchange resin (H^+, 2 g, ® Dow Chemical Co.) was added. After 12 hours stirring at room temperature, the solvent was decanted, dried (MgSO4) and evaporated in vacuo to afford 4-maleimidobutyraldehyde (formula III) as a yellow oil which rapidly solidified on standing (1.38 g, 99%); TLC Rf=0.4, ethyl acetate/hexane 1:1.

ICE protease = details: See Nature 375:78-81 (1995); cited from earlier work

| Compound | stability [1] | inhibition of ICE protease (ICE protease) |
| --- | --- | --- |
| O=CCCCN1C(=O)C=CC1=O [4-maleimidobutyraldehyde] | extremely unstable | – |
| CC(=O)N[C@@H](Cc1ccc(O)cc1)C(=O)N[C@H](C(=O)N[C@@H](C)C(=O)N[C@@H](CC(=O)O)C(=O)CCl)C(C)C [Ac-Tyr-Val-Ala-Asp-*] | – | potent inhibitor |
